Reference: US20260243940A1, “COMPOUND, POLYMERIZABLE COMPOSITION, CURED PRODUCT, OPTICAL FILM, POLARIZING PLATE, AND IMAGE DISPLAY DEVICE” (FUJIFILM Corporation, priority 2019, published 2026)

How the values were obtained:
[1] = Precipitation suppression (recrystallization temperature on cooling, hot stage under polarizing microscope); assay type: physicochemical; details: for Precipitation suppression: class by recrystallization temperature, heated to isotropic phase, then lowered at 5° C./min
Method: Two polarizers of an optical microscope (ECLIPSE E600 POL, manufactured by Nikon Corporation) were arranged so that they were orthogonal to each other, and a sample stand was set between the two polarizers.
Then, a small amount of each synthesized compound was placed on a slide glass, and the slide glass was set on a hot stage placed on a sample stand. While observing the state of the sample with a microscope, the temperature of the hot stage was raised at 5° C./min, and the type of liquid crystal phase and the temperature at which phase transition occurred were recorded from the state of the sample.
In addition, for the recrystallization temperature, the temperature was elevated up to an isotropic phase and then lowered at 5° C./min, and a temperature at which crystals were precipitated was recorded.
Based on the results of the recrystallization temperature measured by the above-mentioned method for evaluating the phase transition temperature, the evaluation was made according to the following standard. The results are shown in Table 3 below. • A: Lower than 50° C. • B: 50° C. or higher and 100° C. or lower • C: Higher than 100° C. and 150° C. or lower • D: Higher than 150° C. and 180° C. or lower

[2] = Solubility in cyclopentanone; assay type: physicochemical; details: for Solubility: heated and stirred at 50° C. for 1 minute, left at 20° C. for 10 minutes, concentration lowered from 40% in 5% steps
Method: Cyclopentanone was added to 25 mg of each synthesized compound so that the concentration of each compound was 40% by mass, and the mixture was heated and stirred at 50° C. for 1 minute.
Then, the mixture was left to stand at 20° C. for 10 minutes, and in a case where there is no undissolved residue or precipitation, it is determined that the mixture can be dissolved at 40% by mass.
In a case where there was an undissolved residue or precipitation, cyclopentanone was further added to the mixture to reduce the concentration by 5% by mass, an operation of heating and stirring at 50° C. for 1 minute and then leaving the mixture stand at 20° C. for 10 minutes was repeatedly performed until there was no undissolved residue or precipitation, thereby confirming the solubility.

precipitation suppression (in words) ([1]; summary of Table 3)	solubility (in words) ([2]; summary of Table 3)	Compound	Precipitation suppression [1]	Solubility [2] [% by mass]
		C=CC(=O)OCCCCOC(=O)C1CCC(C2CCC(C(=O)Oc3ccc(OC(=O)C4CCC(C5CCC(C(=O)OCCCCOC(=O)C=C)CC5)CC4)c4ccccc34)CC2)CC1 (centres unmarked) [Compound 1-1]	D (Higher than 150 °C and 180 °C or lower)	20
		C=CC(=O)OCCCCOC(=O)C1CCC(C2CCC(C(=O)Oc3cc(C)c(OC(=O)C4CCC(C5CCC(C(=O)OCCCCOC(=O)C=C)CC5)CC4)c4ccccc34)CC2)CC1 (centres unmarked) [Compound 1-2]	C (Higher than 100 °C and 150 °C or lower)	25
		C=CC(=O)OCCCCOC(=O)C1CCC(C2CCC(C(=O)Oc3cc(OC)c(OC(=O)C4CCC(C5CCC(C(=O)OCCCCOC(=O)C=C)CC5)CC4)c4ccccc34)CC2)CC1 (centres unmarked) [Compound 1-3]	C (Higher than 100 °C and 150 °C or lower)	20
		C=CC(=O)OCCCCOC(=O)C1CCC(C2CCC(C(=O)Oc3cc(OCC)c(OC(=O)C4CCC(C5CCC(C(=O)OCCCCOC(=O)C=C)CC5)CC4)c4ccccc34)CC2)CC1 (centres unmarked) [Compound 1-4]	B (50 °C or higher and 100 °C or lower)	>40
		C=CC(=O)OCCCCOC(=O)C1CCC(C2CCC(C(=O)Oc3cc(C(=O)OC)c(OC(=O)C4CCC(C5CCC(C(=O)OCCCCOC(=O)C=C)CC5)CC4)c4ccccc34)CC2)CC1 (centres unmarked) [Compound 1-5]	B (50 °C or higher and 100 °C or lower)	>40
		C=CC(=O)OCCCCOC(=O)C1CCC(C2CCC(C(=O)Oc3ccc(OC(=O)C4CCC(C5CCC(C(=O)OCCCCOC(=O)C=C)CC5)CC4)c4cc(C)ccc34)CC2)CC1 (centres unmarked) [Compound 1-6]	C (Higher than 100 °C and 150 °C or lower)	35
		C=CC(=O)OCCCCOC(=O)C1CCC(C2CCC(C(=O)Oc3ccc(OC(=O)C4CCC(C5CCC(C(=O)OCCCCOC(=O)C=C)CC5)CC4)c4c(C)cccc34)CC2)CC1 (centres unmarked) [Compound 1-7]	C (Higher than 100 °C and 150 °C or lower)	25
		C=CC(=O)OCCCCOC(=O)C1CCC(C2CCC(C(=O)Oc3ccc(OC(=O)C4CCC(C5CCC(C(=O)OCCCCOC(=O)C=C)CC5)CC4)c4c(OCC)cccc34)CC2)CC1 (centres unmarked) [Compound 1-8]	B (50 °C or higher and 100 °C or lower)	20
		C=CC(=O)OCCCCOC(=O)C1CCC(C2CCC(C(=O)Oc3ccc(OC(=O)C4CCC(C5CCC(C(=O)OCCCCOC(=O)C=C)CC5)CC4)c4c(OCCCC)cccc34)CC2)CC1 (centres unmarked) [Compound 1-9]	A (Lower than 50° C.)	20
		C=CC(=O)OCCCCOC(=O)C1CCC(C2CCC(C(=O)Oc3ccc(OC(=O)C4CCC(C5CCC(C(=O)OCCCCOC(=O)C=C)CC5)CC4)c4c(OCCCCCCCC)cccc34)CC2)CC1 (centres unmarked) [Compound 1-10]	B (50 °C or higher and 100 °C or lower)	30
		C=CC(=O)OCCCCOC(=O)C1CCC(C2CCC(C(=O)Oc3ccc(OC(=O)C4CCC(C5CCC(C(=O)OCCCCOC(=O)C=C)CC5)CC4)c4c(OC(C)=O)cccc34)CC2)CC1 (centres unmarked) [Compound 1-11]	A (Lower than 50° C.)	35
		C=C(C)C(=O)OCCCCOC(=O)C1CCC(C2CCC(C(=O)Oc3ccc(OC(=O)C4CCC(C5CCC(C(=O)OCCCCOC(=O)C(=C)C)CC5)CC4)c4c(OC(C)=O)cccc34)CC2)CC1 (centres unmarked) [Compound 1-12]	A (Lower than 50° C.)	35
		C=CC(=O)OCCOC(=O)C1CCC(C2CCC(C(=O)Oc3ccc(OC(=O)C4CCC(C5CCC(C(=O)OCCOC(=O)C=C)CC5)CC4)c4c(OC(C)=O)cccc34)CC2)CC1 (centres unmarked) [Compound 1-13]	A (Lower than 50° C.)	30
		C=CC(=O)OCCOCCOCCOC(=O)C1CCC(C2CCC(C(=O)Oc3ccc(OC(=O)C4CCC(C5CCC(C(=O)OCCOCCOCCOC(=O)C=C)CC5)CC4)c4c(OC(C)=O)cccc34)CC2)CC1 (centres unmarked) [Compound 1-15]	A (Lower than 50° C.)	>40
		C=CC(=O)OCCCCOC(=O)C1CCC(C2CCC(C(=O)Oc3ccc(OC(=O)C4CCC(C5CCC(C(=O)OCCCCOC(=O)C=C)CC5)CC4)c4c(OCC)ccc(OCC)c34)CC2)CC1 (centres unmarked) [Compound 1-16]	A (Lower than 50° C.)	>40
		C=CC(=O)OCCCCOC(=O)C1CCC(C2CCC(C(=O)Oc3ccc(OC(=O)C4CCC(C5CCC(C(=O)OCCCCOC(=O)C=C)CC5)CC4)c4c(OC(C)=O)ccc(OC(C)=O)c34)CC2)CC1 (centres unmarked) [Compound 1-17]	C (Higher than 100 °C and 150 °C or lower)	20
		C=CC(=O)OCCCCOC(=O)C1CCC(OC(=O)C2CCC(C(=O)Oc3ccc(OC(=O)C4CCC(C(=O)OC5CCC(C(=O)OCCCCOC(=O)C=C)CC5)CC4)c4ccccc34)CC2)CC1 (centres unmarked) [Compound 2-1]	C (Higher than 100 °C and 150 °C or lower)	10
		C=CC(=O)OCCCCOc1ccc(C(=O)Oc2ccc(C(=O)Oc3ccc(OC(=O)c4ccc(OC(=O)c5ccc(OCCCCOC(=O)C=C)cc5)cc4)c4c(OC(C)=O)cccc34)cc2)cc1 [Compound 2-2]	C (Higher than 100 °C and 150 °C or lower)	15
		C=CC(=O)OCCCCOC(=O)C1CCC(C2CCC(C(=O)Oc3ccc(OC(=O)C4CCC(C5CCC(C(=O)OCCCCOC(=O)C=C)CC5)CC4)c4c(OS(C)(=O)=O)cccc34)CC2)CC1 (centres unmarked) [Compound 2-3]	A (Lower than 50° C.)	25
		C=CC(=O)OCCCCOC(=O)C1CCC(C2CCC(C(=O)Oc3ccc(OC(=O)C4CCC(C5CCC(C(=O)OCCCCOC(=O)C=C)CC5)CC4)c4c(OC(=O)CCl)cccc34)CC2)CC1 (centres unmarked) [Compound 2-4]	A (Lower than 50° C.)	20
deteriorated	deteriorated	C=CC(=O)OCCCCOc1ccc(C(=O)Oc2ccc(OC(=O)c3ccc(OC(=O)c4ccc(OC(=O)c5ccc(OCCCCOC(=O)C=C)cc5)cc4)c(C)c3)cc2)cc1 [compound 2, reference compound]	C (Higher than 100 °C and 150 °C or lower)	<5
